According to US20160122340A1, “HISTONE DEACETYLASE INHIBITORS BASED ON DERIVATIVES OF TRICYCLIC POLYHYDROACRIDINE AND ANALOGS POSSESSING FUSED SATURATED FIVE-AND-SEVEN-MEMBERED RINGS” (QUIMATRYX, S.L., priority 2013, published 2016):

Assays:
[1] = system: T1, Nuclear Extract from HeLa Cells; test: HeLa nuclear extract HDAC activity inhibition; type: biochemical, human
T1 construct: 25 ng/μl Nuclear Extract from HeLa Cells: Prepared by high salt extraction of HeLa nuclei (human cervical cancer cell line)
Protocol: (§1) In Vitro Inhibitory Activity of Histone Deacetylase: Human Isoforms HDAC1, 2, 3, 4, 5, 6, 7, 8, 9, 10 and 11 and HeLa Cell Line Nuclear Extract (IC50 Data)
(§2) All HDAC assays were performed using acetylated AMC-labeled peptide substrate: • Substrate for isoforms HDAC1, 2, 3, 6, 10, 11 and HeLa nuclear extract assays: Acetylated fluorogenic peptide from p53 residues 379-382 (RHKKAc). • Substrate for isoforms HDAC 4, 5, 7, 9: Fluorogenic Boc-L-Lys(ε-trifluoroacetyl)-AMC. • Substrate for HDAC8 assays: Acetylated fluorogenic peptide from p53 residues 379-382 (RHKAcKAc).
[…] The reactions were carried out in a 96-well microplate for fluorometry in a 50 μl reaction volume. After the deacetylation reaction, Fluor-de-Lys-Developer (BioMol Cat. # KI-105) was added to each well to digest the deacetylated substrate, thus producing the fluorescent signal. The reaction was allowed to develop for 45 minutes at 30° C. with 5% CO2; then the fluorescent signal was measured with an excitation wavelength at 360 nm and an emission wavelength at 460 nm in a microplate-reading fluorometer (GeminiXS; Molecular Devices, Sunnyvale, Calif.). A curve of Deacetylated Standard (Biomol, Cat. # KI-142; made from 100 μM with 1:2 dilution and 10-doses, 6 μl) allowed the conversion of fluorescent signal into micromoles of deacetylated product. All experiments were performed in triplicate. IC50 was calculated by fitting the experimental data to a dose-response curve. DMSO was used as negative control; Trichostatin A (Biomol Cat. # GR-309) was used as positive control inhibitor.

Human HDAC10 = target: T2, Human HDAC10 (Homo sapiens, UniProt Q969S8); test: In vitro HDAC10 inhibition, fluorogenic peptide substrate; type: biochemical; conditions: read-out: IC50 (μM) HDAC-10
T2 construct: Amino acids 1-631 with Nterminal GST tag, MW=96 kDa; GST (N); purchased BioMol SE-559; host or cells: baculovirus / Sf9 cells
T2 sequence (Q969S8 1-631): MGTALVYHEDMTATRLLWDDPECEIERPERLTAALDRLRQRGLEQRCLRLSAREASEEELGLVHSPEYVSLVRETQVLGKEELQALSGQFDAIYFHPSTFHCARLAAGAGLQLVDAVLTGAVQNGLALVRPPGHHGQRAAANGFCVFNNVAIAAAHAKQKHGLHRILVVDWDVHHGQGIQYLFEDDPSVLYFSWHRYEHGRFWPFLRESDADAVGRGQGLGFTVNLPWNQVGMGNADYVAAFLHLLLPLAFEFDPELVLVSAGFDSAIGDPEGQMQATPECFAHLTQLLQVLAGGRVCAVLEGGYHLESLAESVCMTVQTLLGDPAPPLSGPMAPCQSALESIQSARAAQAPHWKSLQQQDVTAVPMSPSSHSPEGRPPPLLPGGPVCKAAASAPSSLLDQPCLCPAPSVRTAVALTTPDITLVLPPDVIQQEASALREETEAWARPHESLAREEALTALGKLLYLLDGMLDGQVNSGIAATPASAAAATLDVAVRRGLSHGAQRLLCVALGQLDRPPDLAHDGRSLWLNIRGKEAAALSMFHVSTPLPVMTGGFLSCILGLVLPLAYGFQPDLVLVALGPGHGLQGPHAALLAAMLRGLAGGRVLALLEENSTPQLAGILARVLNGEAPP
Protocol: as §1, §2
50 μM of substrate peptide (see ‘substrate peptides’ section above) and an optimal concentration of the corresponding enzyme (see ‘enzymes’ section above) in the assay buffer and 1% final concentration of DMSO were incubated in the presence of gradient concentrations of inhibitors (10-dose IC50 mode with 3-fold serial dilution) at 30° C. for 2 h. The reactions were carried out in a 96-well microplate for fluorometry in a 50 μl reaction volume. After the deacetylation reaction, Fluor-de-Lys-Developer (BioMol Cat. # KI-105) was added to each well to digest the deacetylated substrate, thus producing the fluorescent signal. The reaction was allowed to develop for 45 minutes at 30° C. with 5% CO2; then the fluorescent signal was measured with an excitation wavelength at 360 nm and an emission wavelength at 460 nm in a microplate-reading fluorometer (GeminiXS; Molecular Devices, Sunnyvale, Calif.). A curve of Deacetylated Standard (Biomol, Cat. # KI-142; made from 100 μM with 1:2 dilution and 10-doses, 6 μl) allowed the conversion of fluorescent signal into micromoles of deacetylated product. All experiments were performed in triplicate. IC50 was calculated by fitting the experimental data to a dose-response curve. DMSO was used as negative control; Trichostatin A (Biomol Cat. # GR-309) was used as positive control inhibitor.

SMILES | IC50 [1] | IC50 (Human HDAC10)
O=C(CCCCCNc1c2c(nc3ccccc13)CCCC2)NO [Example 1, N-hydroxy-6-[(1,2,3,4-tetrahydroacridin-9-yl)amino]hexanamide] | 0.066 µM | 5.76 µM
O=C(CCCCCCNc1c2c(nc3ccccc13)CCCC2)NO [Example 2, N-hydroxy-7-[(1,2,3,4-tetrahydroacridin-9-yl)amino]heptanamide] | 0.023 µM | 0.71 µM
O=C(CCCCCCNc1c2c(nc3ccccc13)CCC2)NO [Example 3, 7-[(2,3-dihydro-1H-cyclopenta[b]quinolin-9-yl)amino]-N-hydroxyheptanamide] | 0.019 µM | 0.51 µM
O=C(CCCCCCNc1c2c(nc3ccccc13)CCCCC2)NO [Example 4, N-hydroxy-7-[(7,8,9,10-tetrahydro-6H-cyclohepta[b]quinolin-11-yl)amino]heptanamide] | 0.038 µM | 1.13 µM
COc1cccc2c(NCCCCCCC(=O)NO)c3c(nc12)CCCC3 [Example 5, N-hydroxy-7-[(5-methoxy-1,2,3,4-tetrahydroacridin-9-yl)amino]heptanamide] | 0.033 µM | 1.46 µM
O=C(CCCCCCNc1c2c(nc3ncccc13)CCCC2)NO [Example 7, N-hydroxy-7-[(6,7,8,9-tetrahydrobenzo[b][1,8]naphthyridin-5-yl)amino]heptanamide] | 0.12 µM | 4.02 µM
O=C(CCCCCCNc1c2c(nc3cnccc13)CCCC2)NO [Example 8, N-hydroxy-7-[(6,7,8,9-tetrahydrobenzo[b][1,7]naphthyridin-5-yl)amino]heptanamide] | 0.095 µM | 2.02 µM
O=C(CCCCCNC(=O)c1c2c(nc3ccccc13)CCCC2)NO [Example 10, N-[6-(hydroxyamino)-6-oxohexyl]-1,2,3,4-tetrahydroacridine-9-carboxamide] | 0.85 µM | > 5 µM
O=C(CCCCCCNC(=O)c1c2c(nc3ccccc13)CCCC2)NO [Example 11, N-[7-(hydroxyamino)-7-oxoheptyl]-1,2,3,4-tetrahydroacridine-9-carboxamide] | 0.42 µM | 6.89 µM
